Source: patent US8772330B2, “Inhibitor(s) of transporters or uptake of monoaminergic neurotransmitters” (State of Oregon acting by and through the State Board of …, priority 2009, dated 2014)
Counter-ions that a name gives are not always drawn.

What was measured:
[1] = molecular target: T1, dopamine (DA) transporter (Homo sapiens, UniProt Q01959); conditions: for Slope, Dopamine (DA) transporter: Table 1, binding curve slope
[2] = molecular target: T2, serotonin (5-HT) transporter (Homo sapiens, UniProt P31645); conditions: Table 2; data derived from literature; read-out: Affinity (Ki), 5-Hydroxy Tryptamine (5-HT) transporter; cited from earlier work
[3] = molecular target: T3, norepinephrine (NE) transporter (Homo sapiens, UniProt P23975); conditions: Table 2; data derived from literature; read-out: Affinity (Ki), Norepinephrine (NE) transporter; cited from earlier work
Target sequence in this assay (P23975 whole entry, species assumed): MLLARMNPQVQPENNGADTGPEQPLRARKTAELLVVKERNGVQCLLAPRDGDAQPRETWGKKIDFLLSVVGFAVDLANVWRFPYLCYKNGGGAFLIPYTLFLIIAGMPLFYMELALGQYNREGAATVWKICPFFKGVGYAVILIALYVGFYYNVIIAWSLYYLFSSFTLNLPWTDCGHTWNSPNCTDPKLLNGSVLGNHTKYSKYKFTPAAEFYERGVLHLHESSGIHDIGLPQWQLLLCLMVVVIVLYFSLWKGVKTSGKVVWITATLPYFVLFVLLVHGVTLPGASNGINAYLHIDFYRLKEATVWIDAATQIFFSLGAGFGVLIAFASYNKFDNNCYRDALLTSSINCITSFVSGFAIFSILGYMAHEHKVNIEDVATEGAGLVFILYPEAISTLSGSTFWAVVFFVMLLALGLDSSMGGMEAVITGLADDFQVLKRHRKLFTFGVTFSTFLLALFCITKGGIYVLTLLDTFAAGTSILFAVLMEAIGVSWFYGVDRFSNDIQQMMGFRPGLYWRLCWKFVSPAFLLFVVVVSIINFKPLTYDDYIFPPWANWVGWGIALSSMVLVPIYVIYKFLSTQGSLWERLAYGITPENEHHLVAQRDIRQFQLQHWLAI

[4] = molecular target: T1, dopamine (DA) transporter; conditions: Table 2; data derived from literature; read-out: Affinity (Ki), Dopamine (DA) transporter; cited from earlier work
[5] = molecular target: T2, serotonin (5-HT) transporter; conditions: for Slope, Serotonin (5-HT) transporter: Table 1, binding curve slope
[6] = molecular target: T3, norepinephrine (NE) transporter
Target sequence in this assay (P23975 whole entry): as the sequence (P23975 whole entry, species assumed) above

T1 sequence (Q01959 whole entry): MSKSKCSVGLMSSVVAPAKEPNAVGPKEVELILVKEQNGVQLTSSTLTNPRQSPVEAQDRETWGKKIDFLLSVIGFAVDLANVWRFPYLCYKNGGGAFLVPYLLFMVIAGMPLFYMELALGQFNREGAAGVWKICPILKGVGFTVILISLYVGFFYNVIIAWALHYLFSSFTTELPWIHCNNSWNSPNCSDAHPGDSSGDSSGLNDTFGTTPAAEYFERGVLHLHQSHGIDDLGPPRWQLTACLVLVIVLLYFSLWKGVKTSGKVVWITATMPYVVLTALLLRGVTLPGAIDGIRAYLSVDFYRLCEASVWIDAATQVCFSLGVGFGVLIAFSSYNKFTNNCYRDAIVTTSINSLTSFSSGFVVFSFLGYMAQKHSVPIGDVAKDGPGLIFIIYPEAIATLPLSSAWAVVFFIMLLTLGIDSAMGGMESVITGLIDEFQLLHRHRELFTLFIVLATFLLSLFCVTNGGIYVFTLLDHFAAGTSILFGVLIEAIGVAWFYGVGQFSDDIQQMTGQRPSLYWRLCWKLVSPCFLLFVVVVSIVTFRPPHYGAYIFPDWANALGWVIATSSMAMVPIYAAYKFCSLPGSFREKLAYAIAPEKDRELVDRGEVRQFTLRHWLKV
T2 sequence (P31645 whole entry): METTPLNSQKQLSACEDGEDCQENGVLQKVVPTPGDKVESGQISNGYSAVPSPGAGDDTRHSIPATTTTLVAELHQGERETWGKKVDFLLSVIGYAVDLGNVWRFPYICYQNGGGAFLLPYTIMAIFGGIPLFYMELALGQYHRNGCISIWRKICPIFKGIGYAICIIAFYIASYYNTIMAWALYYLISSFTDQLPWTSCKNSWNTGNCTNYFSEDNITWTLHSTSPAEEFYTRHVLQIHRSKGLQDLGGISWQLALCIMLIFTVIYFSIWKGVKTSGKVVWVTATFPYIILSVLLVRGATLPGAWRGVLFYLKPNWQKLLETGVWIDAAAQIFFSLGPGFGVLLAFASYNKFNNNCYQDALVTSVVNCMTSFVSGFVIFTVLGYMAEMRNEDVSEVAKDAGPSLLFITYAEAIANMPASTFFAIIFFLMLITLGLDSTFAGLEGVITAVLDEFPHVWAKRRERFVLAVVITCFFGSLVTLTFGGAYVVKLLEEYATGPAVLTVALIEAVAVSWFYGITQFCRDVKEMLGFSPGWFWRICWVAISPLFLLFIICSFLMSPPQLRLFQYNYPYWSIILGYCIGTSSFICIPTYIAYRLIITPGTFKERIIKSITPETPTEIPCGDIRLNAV

## Fc1ccc(C(OCCN2CCN(CCCc3ccccc3)CC2)c2ccc(F)cc2)cc1 [GBR12909, reference compound]
[1]
  Slope, Dopamine (DA) transporter: −1.25
[1]; with reference to Table 1
  times more potent than DWJW0002 as inhibitor of dopamine transporter: 16 times
  times more potent than DWJW0003 as inhibitor of dopamine transporter: 8 times

## C#Cc1ccc([C@@H]2CN3CCC[C@@H]3c3ccccc32)cc1 [JNJ-7925476]
[2]
  Ki: 0.9 ± 0.1 nM
[3]
  Ki: 16.6 ± 7 nM
[4]
  Ki: 5.2 ± 1 nM

## CNCC1CC1(Oc1cccc2ccccc12)c1cccs1 (racemic) [DWJW0003, (Z)-N-Methyl-[2-(naphthalen-1-yloxy)-2-(thiophen-2-yl)cyclopropyl]methanamine Hydrochloride]
[5]
  Slope, Serotonin (5-HT) transporter: −1.19
[6]; Table 1, binding curve slope
  Slope, Norepinephrine (NE) transporter: −0.84
[6]; with reference to Table 1
  times more potent than DWJW0002 as inhibitor of norepinephrine transporter: about 9 times
[1]
  Slope, Dopamine (DA) transporter: −1
[1]; with reference to Table 1
  times more potent than DWJW0002 as inhibitor of dopamine transporter: about 2 times

## CNC[C@@H]1C[C@]1(Oc1cccc2ccccc12)c1cccs1 (racemic) [DWJW0002, (E)-N-Methyl-[2-(naphthalen-1-yloxy)-2-(thiophen-2-yl)cyclopropyl)methanamine Hydrochloride]
[5]
  Slope, Serotonin (5-HT) transporter: −0.92
[5]; with reference to Table 1
  times more potent than DWJW0003 as inhibitor of serotonin transporter: about 3 times
[1]
  Slope, Dopamine (DA) transporter: −1.11

## CN(C)CCCN1c2ccccc2CCc2ccccc21 [Imipramine, reference compound]
[5]
  Slope, Serotonin (5-HT) transporter: −1.06
